This passage reports EC50 and IC50 results from ChEMBL document CHEMBL1148303, “Design and synthesis of alpha-aryloxy-alpha-methylhydrocinnamic acids: a novel class of dual peroxisome proliferator-activated receptor alpha/gamma agonists” (J Med Chem, 2004).

One may read the EC50 as the concentration at which the effect is half-maximal. A word on the IC50: it is the concentration needed to halve the response being measured. Higher therefore signals a need for much substance.

The target of experiment [1] is T1, Peroxisome proliferator-activated receptor delta (Homo sapiens, UniProt Q03181).
T1 sequence (Q03181 whole entry): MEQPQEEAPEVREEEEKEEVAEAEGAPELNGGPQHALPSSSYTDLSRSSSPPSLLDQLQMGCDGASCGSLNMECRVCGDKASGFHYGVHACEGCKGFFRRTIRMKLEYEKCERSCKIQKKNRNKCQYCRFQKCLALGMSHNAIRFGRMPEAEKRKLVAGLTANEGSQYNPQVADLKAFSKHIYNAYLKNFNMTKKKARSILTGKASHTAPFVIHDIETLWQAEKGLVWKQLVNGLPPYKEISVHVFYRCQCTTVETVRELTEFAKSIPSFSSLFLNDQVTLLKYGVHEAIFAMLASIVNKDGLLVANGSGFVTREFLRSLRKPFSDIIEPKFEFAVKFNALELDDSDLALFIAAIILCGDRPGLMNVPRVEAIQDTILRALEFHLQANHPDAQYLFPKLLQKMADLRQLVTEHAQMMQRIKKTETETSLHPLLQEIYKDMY
The format is cell-based, CV-1.

The target in experiment [2] is T1, Peroxisome proliferator-activated receptor delta. The format is functional.
The target is the same in experiment [3].
Experiment [4] shares this target. Type of experiment: cell-based. The following applies: cv-1.
The target in experiment [5] is T2, Peroxisome proliferator-activated receptor alpha (Homo sapiens, UniProt Q07869).
T2 sequence (Q07869 whole entry): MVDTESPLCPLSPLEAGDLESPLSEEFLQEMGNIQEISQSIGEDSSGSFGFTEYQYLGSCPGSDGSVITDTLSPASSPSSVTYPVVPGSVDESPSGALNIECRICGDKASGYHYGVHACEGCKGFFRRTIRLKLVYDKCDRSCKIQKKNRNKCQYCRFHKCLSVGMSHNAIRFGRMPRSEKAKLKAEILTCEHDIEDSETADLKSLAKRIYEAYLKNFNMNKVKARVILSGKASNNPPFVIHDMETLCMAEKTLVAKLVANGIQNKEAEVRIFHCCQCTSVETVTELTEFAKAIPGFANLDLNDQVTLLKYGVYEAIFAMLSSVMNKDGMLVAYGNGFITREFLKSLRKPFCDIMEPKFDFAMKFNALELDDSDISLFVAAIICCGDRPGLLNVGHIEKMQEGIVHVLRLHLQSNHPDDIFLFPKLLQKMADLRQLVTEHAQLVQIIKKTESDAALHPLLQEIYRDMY
Type of experiment: cell-based, CV-1.

The target of experiment [6] is T2, Peroxisome proliferator-activated receptor alpha. Type of experiment: functional.
Experiment [7] deals with T1, Peroxisome proliferator-activated receptor delta. This is another data set of the same source.

As for `Cc1oc(C2CCCCC2)nc1CCOc1ccc(C[C@](C)(Oc2ccccc2)C(=O)O)cc1`, the EC50 result in experiment [1] (cv-1) is recorded as “Not Active”. The compound further returned an IC50 in experiment [2] of 9690 nM.

In the case of `Cc1oc(C2CCCCC2)nc1CCOc1ccc(CC(C)(Oc2ccccc2)C(=O)O)cc1` (stereo not given), the IC50 result in experiment [3] is “Not Active”. Also, in experiment [4], the EC50 result is “Not Active”.

In the case of `Cc1oc(-c2ccc(-c3ccccc3)cc2)nc1CCOc1ccc(CC(C)(Oc2ccccc2)C(=O)O)cc1` (stereo not given), the figures for the EC50 in experiment [5] and in experiment [4] were 69 nM and “Not Active”, respectively. Moreover, the IC50 was 503 nM in experiment [6] and “Not Active” in experiment [3].

As to `Cc1oc(-c2ccccc2)nc1CCOc1ccc(C[C@@](C)(Oc2ccccc2)C(=O)O)cc1`, the EC50 in experiment [1] (read-out: EC50) came to 3010 nM. Also, in experiment [2], the IC50 stood at 2680 nM.

`CCC(Cc1ccc(OCCc2nc(-c3ccccc3)oc2C)cc1)(Oc1ccccc1)C(=O)O` (stereo not given): the figures for the EC50 result in experiment [1] (cv-1) and in experiment [5] were “Not Active” and 75 nM, respectively. Further, the values for the IC50 in experiment [2] and in experiment [6] were 5070 nM and 473 nM, respectively.

With `Cc1oc(-c2cccs2)nc1CCOc1ccc(C[C@@](C)(Oc2ccccc2)C(=O)O)cc1`, the EC50 entry in experiment [1] (cv-1) is “Not Active”.

`Cc1oc(-c2ccccc2)nc1CCOc1ccc(CC(Oc2ccccc2)C(=O)O)cc1` (stereo not given): the values for the EC50 result in experiment [1] (cv-1) and in experiment [5] were “Not Active” and 833 nM, respectively. The IC50 in experiment [2] stood at 7040 nM; in experiment [6] it was 1110 nM.

In the case of `Cc1oc(-c2ccccc2)nc1CCOc1ccc(C[C@](C)(Oc2ccccc2)C(=O)O)cc1`, the EC50 result in experiment [1] (cv-1) was “Not Active”. Also, the IC50 in experiment [2] was 5520 nM.

For `Cc1oc(-c2ccccc2)nc1CCOc1ccc(OC(C)(Cc2ccccc2)C(=O)O)cc1` (stereo not given), the IC50 in experiment [2] amounted to 4450 nM. Besides, the EC50 result in experiment [4] is “Not Active”.

`Cc1oc(-c2cccc(-c3ccccc3)c2)nc1CCOc1ccc(CC(C)(Oc2ccccc2)C(=O)O)cc1` (stereo not given): the EC50 in experiment [5] was 7 nM; in experiment [4], “Not Active”. For the same compound, the figures for the IC50 in experiment [6] and in experiment [7] were 167 nM and “Not Active”, respectively.

Turning to `Cc1oc(-c2ccccc2)nc1CCOc1ccc(CC(C)(Oc2ccccc2)C(=O)O)cc1` (stereo not given), the IC50 in experiment [2] was found to be 7110 nM. The EC50 entry in experiment [4] is given as “Not Active”.

For the compound `CCCCC(Cc1ccc(OCCc2nc(-c3ccccc3)oc2C)cc1)(Oc1ccccc1)C(=O)O` (stereo not given), the results for the EC50 entry in experiment [1] (cv-1) and in experiment [5] were “Not Active” and 2560 nM, respectively. Also, the figures for the IC50 in experiment [2] and in experiment [6] were 7230 nM and 1850 nM, respectively.

`Cc1oc(-c2cccs2)nc1CCOc1ccc(CC(C)(Oc2ccccc2)C(=O)O)cc1` (stereo not given): the EC50 entry in experiment [4] is on record as “Not Active”.

With `Cc1oc(-c2cccs2)nc1CCOc1ccc(C[C@](C)(Oc2ccccc2)C(=O)O)cc1` [LY-510929], in experiment [4], the EC50 entry is recorded as “Not Active”.
